# Reference: the supplement of paper PMC10307832
# Assays:
# Assay in all cases: relative viability (nuclei count vs DMSO), 5 days (fraction); higher = more cells survive
# Calu-6 = tested on: Calu-6
# Outline: (§1)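 The day after seeding in 1536-well plates, lung cancer cell lines were treated by pin tool with a single drug, or with a fixed anchor-drug dose together with five library-drug doses (not always all listed) in √10 steps. After 5 days, a combined fix-and-stain solution (final 0.05% Triton X-100, 1% formaldehyde, 1 ug/ml Hoechst) was added. Nuclei counted on 4× images gave relative viability as treated counts over vehicle counts, reported as the median of duplicate plates.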
# EBC-1 = tested on: EBC-1
# Outline: as §1
# IA-LM = tested on: IA-LM
# Outline: as §1
# NCI-H1299 = tested on: NCI-H1299
# Outline: as §1
# NCI-H1703 = tested on: NCI-H1703
# Outline: as §1
# NCI-H1993 = tested on: NCI-H1993
# Outline: as §1
# NCI-H23 = tested on: NCI-H23
# Outline: as §1
# NCI-H596 = tested on: NCI-H596
# Outline: as §1
structure (smiles),measurement,setting,value
CC1(C)CCC(c2ccc(Cl)cc2)=C(CN2CCN(c3ccc(C(=O)NS(=O)(=O)c4ccc(N[C@H](CCN5CCOCC5)CSc5ccccc5)c(S(=O)(=O)C(F)(F)F)c4)cc3)CC2)C1 [Navitoclax] + CC(C)C[C@H](NC(=O)[C@H](Cc1ccccc1)NC(=O)c1cnccn1)B(O)O [Bortezomib] (partner 0.002 µM),relative viability,Calu-6; first compound 0.005 µM,0.999
same,relative viability,Calu-6; first compound 0.01581 µM,1.16
same,relative viability,Calu-6; first compound 0.05 µM,1.13
same,relative viability,Calu-6; first compound 0.1581 µM,0.972
same,relative viability,Calu-6; first compound 0.5 µM,0.877
same,relative viability,EBC-1; first compound 0.005 µM,0.614
same,relative viability,EBC-1; first compound 0.01581 µM,0.649
same,relative viability,EBC-1; first compound 0.05 µM,0.575
same,relative viability,EBC-1; first compound 0.1581 µM,0.616
same,relative viability,EBC-1; first compound 0.5 µM,0.383
same,relative viability,IA-LM; first compound 0.005 µM,0.926
same,relative viability,IA-LM; first compound 0.01581 µM,0.818
same,relative viability,IA-LM; first compound 0.05 µM,0.824
same,relative viability,IA-LM; first compound 0.1581 µM,0.896
same,relative viability,IA-LM; first compound 0.5 µM,0.747
same,relative viability,NCI-H1299; first compound 0.005 µM,1.04
same,relative viability,NCI-H1299; first compound 0.01581 µM,1.12
same,relative viability,NCI-H1299; first compound 0.05 µM,1.01
same,relative viability,NCI-H1299; first compound 0.1581 µM,1.05
same,relative viability,NCI-H1299; first compound 0.5 µM,1.02
same,relative viability,NCI-H1703; first compound 0.005 µM,0.214
same,relative viability,NCI-H1703; first compound 0.01581 µM,0.275
same,relative viability,NCI-H1703; first compound 0.05 µM,0.313
same,relative viability,NCI-H1703; first compound 0.1581 µM,0.65
same,relative viability,NCI-H1703; first compound 0.5 µM,0.224
same,relative viability,NCI-H1993; first compound 0.005 µM,1.11
same,relative viability,NCI-H1993; first compound 0.01581 µM,1.58
same,relative viability,NCI-H1993; first compound 0.05 µM,0.961
same,relative viability,NCI-H1993; first compound 0.1581 µM,0.958
same,relative viability,NCI-H1993; first compound 0.5 µM,1.06
same,relative viability,NCI-H23; first compound 0.005 µM,0.894
same,relative viability,NCI-H23; first compound 0.01581 µM,1.3
same,relative viability,NCI-H23; first compound 0.05 µM,1.24
same,relative viability,NCI-H23; first compound 0.1581 µM,1.02
same,relative viability,NCI-H23; first compound 0.5 µM,1.02
same,relative viability,NCI-H596; first compound 0.005 µM,1.22
same,relative viability,NCI-H596; first compound 0.01581 µM,0.81
same,relative viability,NCI-H596; first compound 0.05 µM,0.904
same,relative viability,NCI-H596; first compound 0.1581 µM,1.22
same,relative viability,NCI-H596; first compound 0.5 µM,0.914
NC(=O)Nc1cc(-c2cccc(F)c2)sc1C(=O)N[C@H]1CCCNC1 [AZD7762] + CC(C)C[C@H](NC(=O)[C@H](Cc1ccccc1)NC(=O)c1cnccn1)B(O)O [Bortezomib] (partner 0.002 µM),relative viability,Calu-6; first compound 0.01 µM,1.03
same,relative viability,Calu-6; first compound 0.03162 µM,0.96
same,relative viability,Calu-6; first compound 0.1 µM,0.782
same,relative viability,Calu-6; first compound 0.3162 µM,0.245
same,relative viability,Calu-6; first compound 1 µM,0.152
same,relative viability,EBC-1; first compound 0.01 µM,0.633
same,relative viability,EBC-1; first compound 0.03162 µM,0.508
same,relative viability,EBC-1; first compound 0.1 µM,0.566
same,relative viability,EBC-1; first compound 0.3162 µM,0.493
same,relative viability,EBC-1; first compound 1 µM,0.309
same,relative viability,IA-LM; first compound 0.01 µM,1.05
same,relative viability,IA-LM; first compound 0.03162 µM,0.851
same,relative viability,IA-LM; first compound 0.1 µM,1.22
same,relative viability,IA-LM; first compound 0.3162 µM,1.14
same,relative viability,IA-LM; first compound 1 µM,0.253
same,relative viability,NCI-H1299; first compound 0.01 µM,1.07
same,relative viability,NCI-H1299; first compound 0.03162 µM,1.04
same,relative viability,NCI-H1299; first compound 0.1 µM,1.04
same,relative viability,NCI-H1299; first compound 0.3162 µM,1.04
same,relative viability,NCI-H1299; first compound 1 µM,0.964
same,relative viability,NCI-H1703; first compound 0.01 µM,0.409
same,relative viability,NCI-H1703; first compound 0.03162 µM,0.182
same,relative viability,NCI-H1703; first compound 0.1 µM,0.167
same,relative viability,NCI-H1703; first compound 0.3162 µM,0.176
same,relative viability,NCI-H1703; first compound 1 µM,0.124
same,relative viability,NCI-H1993; first compound 0.01 µM,1.2
same,relative viability,NCI-H1993; first compound 0.03162 µM,1.08
same,relative viability,NCI-H1993; first compound 0.1 µM,1.07
same,relative viability,NCI-H1993; first compound 0.3162 µM,1.36
same,relative viability,NCI-H1993; first compound 1 µM,0.841
same,relative viability,NCI-H23; first compound 0.01 µM,1.26
same,relative viability,NCI-H23; first compound 0.03162 µM,0.986
same,relative viability,NCI-H23; first compound 0.1 µM,0.742
same,relative viability,NCI-H23; first compound 0.3162 µM,0.597
same,relative viability,NCI-H23; first compound 1 µM,0.284
same,relative viability,NCI-H596; first compound 0.01 µM,1.02
same,relative viability,NCI-H596; first compound 0.03162 µM,0.896
same,relative viability,NCI-H596; first compound 0.1 µM,1.13
same,relative viability,NCI-H596; first compound 0.3162 µM,1.2
same,relative viability,NCI-H596; first compound 1 µM,1.03
O=C(O)c1ccc(-c2c[nH]c3ncc(-c4ccccc4)cc23)cc1C1CCCC1 + CC(C)C[C@H](NC(=O)[C@H](Cc1ccccc1)NC(=O)c1cnccn1)B(O)O [Bortezomib] (partner 0.002 µM),relative viability,Calu-6; first compound 0.04 µM,0.912
same,relative viability,Calu-6; first compound 0.1265 µM,1
same,relative viability,Calu-6; first compound 0.4 µM,0.907
same,relative viability,Calu-6; first compound 1.265 µM,0.661
same,relative viability,EBC-1; first compound 0.04 µM,0.567
same,relative viability,EBC-1; first compound 0.1265 µM,0.583
same,relative viability,EBC-1; first compound 0.4 µM,0.452
same,relative viability,EBC-1; first compound 1.265 µM,0.308
same,relative viability,IA-LM; first compound 0.04 µM,0.915
same,relative viability,IA-LM; first compound 0.1265 µM,0.868
same,relative viability,IA-LM; first compound 0.4 µM,0.761
same,relative viability,IA-LM; first compound 1.265 µM,0.658
same,relative viability,NCI-H1299; first compound 0.04 µM,1.05
same,relative viability,NCI-H1299; first compound 0.1265 µM,1.03
same,relative viability,NCI-H1299; first compound 0.4 µM,0.986
same,relative viability,NCI-H1299; first compound 1.265 µM,0.893
same,relative viability,NCI-H1703; first compound 0.1265 µM,0.235
same,relative viability,NCI-H1703; first compound 0.4 µM,0.3
same,relative viability,NCI-H1703; first compound 1.265 µM,0.433
same,relative viability,NCI-H1993; first compound 0.04 µM,1.18
same,relative viability,NCI-H1993; first compound 0.4 µM,1.14
same,relative viability,NCI-H1993; first compound 1.265 µM,0.871
same,relative viability,NCI-H23; first compound 0.04 µM,1.05
same,relative viability,NCI-H23; first compound 0.1265 µM,1.21
same,relative viability,NCI-H23; first compound 0.4 µM,0.958
same,relative viability,NCI-H23; first compound 1.265 µM,1.11
same,relative viability,NCI-H596; first compound 0.04 µM,0.935
same,relative viability,NCI-H596; first compound 0.1265 µM,0.982
same,relative viability,NCI-H596; first compound 0.4 µM,1.02
same,relative viability,NCI-H596; first compound 1.265 µM,1.06
